In patent publication US20260138959A1, “QUINAZOLINE DERIVATIVE COMPOUND AND USE THEREOF” (VORONOI INC., priority 2021, published 2026):

tested on: Ba/F3-c-KIT(D816V); assay: Proliferation inhibitory activity on Ba/F3 cell (CellTiter-Glo, 72 hours), c-KIT(D816V); format: cell-based; conditions: Mus musculus, BaF3, read-out: Ba/F3 (nM) c-KIT (D816V) (GI50 class)
Method: (§1) Ba/F3-TEL-PDGFRα(WT), Ba/F3-TEL-PDGFβ(WT), Ba/F3-c-KIT(D816V) (Kyinno, #KC-0138), c-KIT V560G/D816V, c-KIT D814Y were seeded at 3×10^3/100 μl/well in a clear bottom white 96-well plate. A culture solution containing compounds of 12 concentrations (0.00001-2 mM) serially diluted in 3 folds and the DMSO control group was added at 0.5 μl/well each to a final concentration of 0.00005-10 μM, and then incubated in a CO2 incubator at 37° C. for 72 hours. After 72 hours, the plate treated with the compound was taken out, CellTiter-Glo® Assay (Promega) solution was treated with 100 μl/well, followed by mixing well. After mixing well for about 10 minutes at room temperature, […] was measured using a microplate reader. The data were presented as percentages in proportion to treated cells based on the vehicle, GI50 (nM) values were calculated using GraphPad Prism 8.3.0 (GraphPad software Inc., San Diego).
(§2) The inhibitory activities of Ba/F3 expressing PDGFR-α, PDGFR-β, c-KIT(D816V), c-KIT V560G/D816V, and c-KIT D814Y measured as described above were measured and shown in Table 7 below (A: GI50≤200 nM; B: 200 nM<GI50≤500 nM; C: GI50>500 nM).

GI50 | SMILES
≤ 200 nM | COc1cc2ncnc(-c3ccc(NC(=O)Cc4ccc(C(F)(F)F)cc4)cc3)c2cc1OC1COC1 [Example 153, N-(4-(7-methoxy-6-(oxetan-3-yloxy)quinazolin-4-yl)phenyl)-2-(4-(trifluoromethyl)phenyl)acetamide]
200 to 500 nM | COc1cc2ncnc(-c3ccc(NC(=O)Cc4ccc(C(F)(F)F)cc4)cc3)c2cc1OC1CN(C(=O)OC(C)(C)C)C1 [Example 135, tert-butyl 3-((7-methoxy-4-(4-(2-(4-(trifluoromethyl)phenyl)acetamido)phenyl)quinazolin-6-yl)oxy)azetidin-1-carboxylate]
≤ 200 nM | COc1cc2c(-c3ccc(NC(=O)Cc4ccc(C(F)(F)F)cc4)cc3)ncnc2cc1OCCCNc1cnn(C)c1 [Example 26, N-(4-(6-methoxy-7-(3-((1-methyl-1H-pyrazol-4-yl)amino)propoxy)quinazolin-4-yl)phenyl)-2-(4-(trifluoromethyl)phenyl)acetamide]
> 500 nM | COc1cc2c(-c3ccc(NC(=O)CC4CCNCC4)cc3)ncnc2cc1OCCCN1CCN(C)CC1 [Example 86, N-(4-(6-methoxy-7-(3-(4-methylpiperazin-1-yl)propoxy)quinazolin-4-yl)phenyl)-2-(piperidin-4-yl)acetamide]
> 500 nM | COc1cc2ncnc(-c3ccc(NC(=O)Cc4ccc(C(F)(F)F)cc4)cc3)c2cc1OCC1CCNCC1 [Example 146, N-(4-(7-methoxy-6-(piperidin-4-ylmethoxy)quinazolin-4-yl)phenyl)-2-(4-(trifluoromethyl)phenyl)acetamide]
≤ 200 nM | COc1cc2ncnc(-c3ccc(NC(=O)Cc4ccc(C(F)(F)F)cc4)cc3)c2cc1OCCCNC1CC1 [Example 154, N-(4-(6-(3-(cyclopropylamino)propoxy)-7-methoxyquinazolin-4-yl)phenyl)-2-(4-(trifluoromethyl)phenyl)acetamide]
> 500 nM | COc1cc2c(-c3ccc(NC(=O)Cn4cc(C(C)C)nn4)cc3)ncnc2cc1OCC1CCNCC1 [Example 61, 2-(4-isopropyl-1H-1,2,3-triazole-1-yl)-N-(4-(6-methoxy-7-(piperidin-4-ylmethoxy)quinazolin-4-yl)phenyl)acetamide]

tested on: c-KIT V560G/D816V; assay: Proliferation inhibitory activity on Ba/F3 cell (CellTiter-Glo, 72 hours), c-KIT V560G/D816V; format: cell-based; conditions: Mus musculus, BaF3, c-KIT V560G/D816V cells, read-out: Cell (nM) c-KIT V560G/D816V (GI50 class)
Method: as §1, §2

SMILES | GI50
CCN1CCCC(COc2cc3ncnc(-c4ccc(NC(=O)Cn5cc(C(C)C)nn5)cc4)c3cc2OC)C1 (stereo not shown) [Example 111, N-(4-(7-((1-ethylpiperidin-3-yl)methoxy)-6-methoxyquinazolin-4-yl)phenyl)-2-(4-isopropyl-1H-1,2,3-triazole-1-yl)acetamide] | > 500 nM
COCCN1CCC(COc2cc3ncnc(-c4ccc(NC(=O)Cn5cc(C(C)C)nn5)cc4)c3cc2OC)CC1 [Example 94, 2-(4-isopropyl-1H-1,2,3-triazole-1-yl)-N-(4-(6-methoxy-7-((1-(2-methoxyethyl)piperidin-4-yl)methoxy)quinazolin-4-yl)phenyl)acetamide] | > 500 nM
COc1cc2c(-c3ccc(NC(=O)Cn4cc(C(C)C)nn4)cc3)ncnc2cc1OCC1CCN(C(C)C)CC1 [Example 120, 2-(4-isopropyl-1H-1,2,3-triazole-1-yl)-N-(4-(7-((1-isopropylpiperidin-4-yl)methoxy)-6-methoxyquinazolin-4-yl)phenyl)acetamide] | > 500 nM
COc1cc2c(-c3ccc(NC(=O)Cn4cc(C(C)C)nn4)cc3)ncnc2cc1OCC1CCN(C(C)=O)CC1 [Example 107, N-(4-(7-((1-acetylpiperidin-4-yl)methoxy)-6-methoxyquinazolin-4-yl)phenyl)-2-(4-isopropyl-1H-1,2,3-triazole-1-yl)acetamide] | > 500 nM
COCCN1CCC(COc2cc3ncnc(-c4ccc(NC(=O)Cn5cc(C(C)(C)C)nn5)cc4)c3cc2OC)CC1 [Example 95, 2-(4-(tert-butyl)-1H-1,2,3-triazole-1-yl)-N-(4-(6-methoxy-7-((1-(2-methoxyethyl)piperidin-4-yl)methoxy)quinazolin-4-yl)phenyl)acetamide] | > 500 nM
COc1cc2c(-c3ccc(NC(=O)Cn4cc(C(C)(C)C)nn4)cc3)ncnc2cc1OCC1CCN(C(C)=O)CC1 [Example 108, N-(4-(7-((1-acetylpiperidin-4-yl)methoxy)-6-methoxyquinazolin-4-yl)phenyl)-2-(4-(tert-butyl)-1H-1,2,3-triazole-1-yl)acetamide] | > 500 nM
COc1cc2c(-c3ccc(NC(=O)Cn4cc(C(C)(C)C)nn4)cc3)ncnc2cc1OCC1CCN(C(C)C)CC1 [Example 119, 2-(4-(tert-butyl)-1H-1,2,3-triazole-1-yl)-N-(4-(7-((1-isopropylpiperidin-4-yl)methoxy)-6-methoxyquinazolin-4-yl)phenyl)acetamide] | > 500 nM
CCN1CCCC(COc2cc3ncnc(-c4ccc(NC(=O)Cn5cc(C(C)(C)C)nn5)cc4)c3cc2OC)C1 (stereo not shown) [Example 112, 2-(4-(tert-butyl)-1H-1,2,3-triazole-1-yl)-N-(4-(7-((1-ethylpiperidin-3-yl)methoxy)-6-methoxyquinazolin-4-yl)phenyl)acetamide] | > 500 nM
COCCOc1cc2ncnc(-c3ccc(NC(=O)Cc4ccc(C(F)(F)F)cc4)cc3)c2cc1OC [Example 117, N-(4-(6-methoxy-7-(2-methoxyethoxy)quinazolin-4-yl)phenyl)-2-(4-(trifluoromethyl)phenyl)acetamide] | ≤ 200 nM
COc1cc2c(-c3ccc(NC(=O)Cn4cc(C(C)(C)C)nn4)cc3)ncnc2cc1OCC1CCN(C)CC1 [Example 106, 2-(4-(tert-butyl)-1H-1,2,3-triazole-1-yl)-N-(4-(6-methoxy-7-((1-methylpiperidin-4-yl)methoxy)quinazolin-4-yl)phenyl)acetamide] | > 500 nM

Results, then the compound that gave them:

GI50 | SMILES
200 to 500 nM | COCCN1CCC(COc2cc3ncnc(-c4ccc(NC(=O)C5(c6ccc(F)cc6)CC5)cc4)c3cc2OC)CC1 [Example 92, 1-(4-fluorophenyl)-N-(4-(6-methoxy-7-((1-(2-methoxyethyl)piperidin-4-yl)methoxy)quinazolin-4-yl)phenyl)cyclopropane-1-carboxamide]
200 to 500 nM | COc1cc2c(-c3ccc(NC(=O)Cc4ccc(C(F)(F)F)nc4)cc3)ncnc2cc1OCC1CCN(C(C)=O)CC1 [Example 104, N-(4-(7-((1-acetylpiperidin-4-yl)methoxy)-6-methoxyquinazolin-4-yl)phenyl)-2-(6-(trifluoromethyl)pyridin-3-yl)acetamide]
200 to 500 nM | CCN1CCC(COc2cc3ncnc(-c4ccc(NC(=O)C5(c6ccc(F)cc6)CC5)cc4)c3cc2OC)CC1 [Example 93, N-(4-(7-((1-ethylpiperidin-4-yl)methoxy)-6-methoxyquinazolin-4-yl)phenyl)-1-(4-fluorophenyl)cyclopropane-1-carboxamide]
200 to 500 nM | COc1cc2c(-c3ccc(NC(=O)C(C)(C)c4ccc(F)cc4)cc3)ncnc2cc1OCC1CCNCC1 [Example 88, 2-(4-fluorophenyl)-N-(4-(6-methoxy-7-(piperidin-4-ylmethoxy)quinazolin-4-yl)phenyl)-2-methylpropanamide]
200 to 500 nM | COc1cc2c(-c3ccc(NC(=O)C4(c5ccc(F)cc5)CC4)cc3)ncnc2cc1OCC1CCNCC1 [Example 91, 1-(4-fluorophenyl)-N-(4-(6-methoxy-7-(piperidin-4-ylmethoxy)quinazolin-4-yl)phenyl)cyclopropane-1-carboxamide]
200 to 500 nM | COCCN1CCC(COc2cc3ncnc(-c4ccc(NC(=O)CCCc5ccccc5)cc4)c3cc2OC)CC1 [Example 114, N-(4-(6-methoxy-7-((1-(2-methoxyethyl)piperidin-4-yl)methoxy)quinazolin-4-yl)phenyl)-4-phenylbutanamide]
≤ 200 nM | COc1cc2c(-c3ccc(NC(=O)Cc4ccc(C(F)(F)F)cc4)cc3)ncnc2cc1OCC1CCN(C(C)=O)CC1 [Example 102, N-(4-(7-((1-acetylpiperidin-4-yl)methoxy)-6-methoxyquinazolin-4-yl)phenyl)-2-(4-(trifluoromethyl)phenyl)acetamide]
200 to 500 nM | COc1ccc(CC(=O)Nc2ccc(-c3ncnc4cc(OCC5CCN(C(C)=O)CC5)c(OC)cc34)cc2)cn1 [Example 103, N-(4-(7-((1-acetylpiperidin-4-yl)methoxy)-6-methoxyquinazolin-4-yl)phenyl)-2-(6-methoxypyridin-3-yl)acetamide]
> 500 nM | COc1cc2c(-c3ccc(NC(=O)Cn4cc(C(C)C)nn4)cc3)ncnc2cc1OCC1CCN(C)CC1 [Example 105, 2-(4-isopropyl-1H-1,2,3-triazole-1-yl)-N-(4-(6-methoxy-7-((1-methylpiperidin-4-yl)methoxy)quinazolin-4-yl)phenyl)acetamide]
> 500 nM | COc1cc2c(-c3ccc(NC(=O)Cc4ccc(C(F)(F)F)cc4)cc3)ncnc2cc1OCC1CCN(C(=O)OC(C)(C)C)CC1 [Example 15, tert-butyl 4-(((6-methoxy-4-(4-(2-(4-(trifluoromethyl)phenyl)acetamido)phenyl)quinazolin-7-yl)oxy)methyl)piperidin-1-carboxylate]
≤ 200 nM | COc1cc2c(-c3ccc(NC(=O)Cc4ccc(C(F)(F)F)cc4)cc3)ncnc2cc1OCC1CCNCC1 [Example 17, N-(4-(6-methoxy-7-(piperidin-4-ylmethoxy)quinazolin-4-yl)phenyl)-2-(4-(trifluoromethyl)phenyl)acetamide]
